Assay results taken from the CheMixHub drug solubility set.

Experiment: xn = mol fraction of the nth substance listed, in the solute-free solvent

N#CCNC(=O)c1cnccc1C(F)(F)F + CCOC(C)=O + CCO
solubility (g/100 g solution)
Conditions | 283.15 K | 288.15 K | 293.15 K | 298.15 K | 303.15 K | 308.15 K | 313.15 K | 318.15 K | 323.15 K
x2 = 0.2 | 4.4 | 5.22 | 6.22 | 7.38 | 8.72 | 10.2 | 12 | 14 | 16.2
x2 = 0.4 | 5.66 | 6.57 | 7.58 | 8.78 | 10.1 | 11.6 | 13.2 | 15.2 | 17.2
x2 = 0.6 | 5.43 | 6.27 | 7.24 | 8.3 | 9.5 | 10.8 | 12.3 | 13.9 | 15.6
x2 = 0.8 | 4.38 | 5.03 | 5.77 | 6.59 | 7.53 | 8.56 | 9.69 | 10.9 | 12.3

FC(F)(F)c1cccnc1Cl + CN(C)C=O + CCCCO
solubility (g/100 g solution)
Conditions | 263.15 K | 268.15 K | 273.15 K | 278.15 K | 283.15 K | 288.15 K | 293.15 K | 298.15 K | 303.15 K
x2 = 0.2885 | 31.3 | 36.7 | 42.1 | 48.9 | 55.3 | 61.7 | 68.1 | 74.6 | 81.4
x2 = 0.4479 | 37.6 | 43.2 | 48.7 | 55.3 | 61.5 | 67.7 | 73.7 | 79.9 | 85.9
x2 = 0.6438 | 43.1 | 48.9 | 54.2 | 61.1 | 67.5 | 73.7 | 79.7 | 85.6 | 90.9
x2 = 0.8281 | 50.8 | 56.5 | 61.9 | 68.2 | 74 | 79.6 | 85 | 90.4 | 95.1

FC(F)(F)c1cccnc1Cl + CN(C)C=O + CCO
solubility (g/100 g solution)
Conditions | 263.15 K | 268.15 K | 273.15 K | 278.15 K | 283.15 K | 288.15 K | 293.15 K | 298.15 K | 303.15 K
x2 = 0.2013 | 36.2 | 43.5 | 51.6 | 59 | 67 | 74.8 | 82.5 | 89.4 | 95.4
x2 = 0.3352 | 41.2 | 48.1 | 56.3 | 62.5 | 69.5 | 77 | 83.4 | 90.3 | 96
x2 = 0.5291 | 47.4 | 53.8 | 60.5 | 66.9 | 73.2 | 79.9 | 85.7 | 91.4 | 96.8
x2 = 0.7496 | 51.2 | 57.2 | 63.7 | 69.6 | 75.4 | 81.3 | 86.7 | 92.5 | 97.7

CCOc1ccccc1C(N)=O + CO + CC#N
solubility (g/100 g solution)
Conditions | x2 = 0.1 | x2 = 0.2 | x2 = 0.3 | x2 = 0.4 | x2 = 0.5 | x2 = 0.6 | x2 = 0.7 | x2 = 0.8 | x2 = 0.9
293.15 K | 3.86 | 5.1 | 6.26 | 7.41 | 8.25 | 8.88 | 8.99 | 8.83 | 8.26
298.15 K | 4.9 | 6.33 | 7.81 | 9.11 | 10.1 | 11 | 11.1 | 10.7 | 10.1
303.15 K | 6.47 | 8.36 | 10.2 | 11.5 | 12.8 | 13.6 | 13.7 | 13.4 | 12.6
308.15 K | 8.43 | 10.8 | 12.9 | 14.4 | 15.6 | 16.5 | 16.4 | 16.3 | 15.1
313.15 K | 10.8 | 13.5 | 16 | 18.1 | 19.3 | 20.4 | 20.4 | 19.8 | 18.5
318.15 K | 13.7 | 16.8 | 19.7 | 21.9 | 23.4 | 24.4 | 24.5 | 24 | 22.7
323.15 K | 17.3 | 21 | 24 | 26.4 | 28.3 | 29.2 | 29.3 | 28.5 | 27.1

Cl.NC(Cc1ccccc1)C(=O)OCc1ccccc1 (stereo unspecified) + CO + CC(C)=O
solubility (g/100 g solution)
Conditions | x2 = 0.1 | x2 = 0.2 | x2 = 0.3 | x2 = 0.4 | x2 = 0.5 | x2 = 0.6 | x2 = 0.7 | x2 = 0.8 | x2 = 0.9
283.15 K | 0.104 | 0.31 | 1.34 | 2.29 | 3.85 | 5.52 | 7.5 | 9.27 | 11.1
293.15 K | 0.238 | 0.665 | 1.52 | 2.75 | 4.55 | 6.53 | 8.94 | 11 | 13.1
303.15 K | 0.306 | 0.778 | 1.83 | 3.37 | 5.58 | 7.97 | 10.7 | 13.6 | 15.5
313.15 K | 0.482 | 0.999 | 2.35 | 4.15 | 6.96 | 9.8 | 13.2 | 15.8 | 18.4
323.15 K | 0.588 | 1.3 | 2.96 | 5.13 | 8.44 | 12.1 | 15.8 | 19.4 | 21.6
